pEC50: −log10 of the molar value.
Key:
[1] = test system: CDK4/6-dependent cell lines; settings: cited from earlier work
[2] = test system: CDK4/6 independent Rb-null melanoma cell line A2058; settings: cited from earlier work
[3] = test system: mice exposed to peri-lethal and lethal TBI; settings: compared to untreated controls; cited from earlier work
[4] = in vivo; cited from earlier work
[5] = test system: 456 (395 non-mutant) kinases; assay: DiscoveRx KINOMEscan profiling; assay type: binding; settings: single concentration of 1000 nM
HS68 cells = assay: G1 arrest (cellular G1 and S-phase) assay, propidium iodide flow cytometry; assay type: cell-based; settings: Homo sapiens
Description: For determination of cellular fractions in various stages of the cell cycle following various treatments, HS68 cells (human skin fibroblast cell line (Rb-positive)) were stained with propidium iodide staining solution and run on Dako Cyan Flow Cytometer. The fraction of cells in G0-G1 DNA cell cycle versus the fraction in S-phase DNA cell cycle was determined using FlowJo 7.2.2 analysis.
Formulas I, II, III, and IV were tested for their ability to arrest HS68 cells at the G1 phase of the cell cycle.

tHS68 cells [6] = assay: Cell cycle arrest in CDK4/6-dependent cells, propidium iodide flow cytometry; assay type: cell-based
From the text: To test the ability of CDK4/6 inhibitors to induce a clean G1-arrest, a cell based screening method was used consisting of two CDK4/6-dependent cell lines (tHS68 and WM2664; Rb-positive) and one CDK4/6-independent (A2058; Rb-negative) cell line. […] At the conclusion of the experiment, cells were harvested, fixed, and stained with propidium iodide (a DNA intercalator), which fluoresces strongly red (emission maximum 637 nm) when excited by 488 nm light. Samples were run on Dako Cyan flow cytometer and >10,000 events were collected for each sample. Data were analyzed using FlowJo 2.2 software developed by TreeStar, Inc.

WM2664 or tHS68 = assay: Proliferation by EdU incorporation, RB-intact CDK4/6-dependent cell line; assay type: cell-based; settings: 24 hours; WM2664 for PD0332991 (300 nM), tHS68 for Formula I and III (300 nM or 1000 nM)
Description: (§1) SCLC cells were treated with DMSO or the indicated CDK4/6 inhibitor for 24 hours. The effect of CDK4/6 inhibition on proliferation was measured by EdU incorporation. An RB-intact, CDK4/6-dependent cell line (WM2664 or tHS68) and a panel of RB-negative SCLC cell lines (H69, H82, H209, H345, NCI417, or SHP-77) were analyzed for growth inhibition by the various CDK4/6 inhibitors.

[7] = test system: RB-negative SCLC cell lines (H69, H82, H209, H345, NCI417, SHP-77); assay: Proliferation by EdU incorporation, RB-negative SCLC cell lines; assay type: cell-based; settings: 24 hours; PD0332991 300 nM, Formula I and III 300 nM or 1000 nM
Description: as §1

[8] = test system: H69 (human small cell lung cancer, Rb-negative) cells; assay: CellTiter-Glo cellular proliferation assay, H69; assay type: cell-based; settings: NCI-H69, 96 h, four days
Description: (§2) Cellular proliferation assays were conducted using the following Rb-negative cancer cell lines: H69 (human small cell lung cancer—Rb-negative) cells or A2058 (human metastatic melanoma cells—Rb-negative). These cells were seeded in Costar (Tewksbury, Mass.) 3093 96 well tissue culture treated white walled/clear bottom plates. Cells were treated Formulas I, II, III, or IV as nine point dose response dilution series from 10 uM to 1 nM. Cells were exposed to compounds and then cell viability was determined after either four (H69) or six (A2058) days as indicated using the CellTiter-Glo® luminescent cell viability assay (CTG; Promega, Madison, Wis., United States of America) following the manufacturer's recommendations. Plates were read on BioTek (Winooski, Vt.) Syngergy2 multi-mode plate reader. The Relative Light Units (RLU) were plotted as a result of variable molar concentration and data was analyzed using Graphpad (LaJolla, Californaia) Prism 5 statistical software to determine the EC50 for each compound.

[9] = test system: A2058 (human metastatic melanoma cells, Rb-negative); assay: CellTiter-Glo cellular proliferation assay, A2058; assay type: cell-based; settings: A2058, 144 h, six days
Description: as §2

[10] = Metabolic stability in liver microsomes; assay type: in vitro ADME, and mouse; settings: each of the species tested (human, monkey, dog, rat, mouse); 1 uM, 0.5 mg/mL microsomes
Description: Human, mouse, and dog liver microsomes were purchased from Xenotech, and Sprague-Dawley rat liver microsomes were prepared by Absorption Systems. The reaction mixture comprising 0.5 mg/mL of liver microsomes, 100 mM of potassium phosphate, pH 7.4, 5 mM of magnesium chloride, and 1 uM of test compound was prepared. The test compound was added into the reaction mixture at a final concentration of 1 uM. An aliquot of the reaction mixture (without cofactor) was incubated in shaking water bath at 37 deg. C. for 3 minutes. The control compound, testosterone, was run simultaneously with the test compound in a separate reaction. The reaction was initiated by the addition of cofactor (NADPH), and the mixture was then incubated in a shaking water bath at 37 deg. C. Aliquots (100 μL) were withdrawn at 0, 10, 20, 30, and 60 minutes for the test compound and 0, 10, 30, and 60 minutes for testosterone. […] Test compound samples were analyzed using the Orbitrap high resolution mass spectrometer to quantify the disappearance of parent test compound and detect the appearance of metabolites. […] Half-lives were calculated using GraphPad software, fitting to a single-phase exponential decay equation.
When calculated half-life was longer than the duration of the experiment, the half-life was expressed as > the longest incubation time. The calculated half-life is also listed in parentheses. […]

tHDF cells = assay: Caspase 3/7 assay after irradiation; assay type: cell-based; settings: 100, 300 or 1,000 nM after 6, 8 or 10 Gy
Description: (§3) DNA damage was determined using the g-H2A.X assay and apoptosis was determined with a Caspase 3/7 assay. For the g-H2AX assay, tHS68 cells were fixed and stained using the g-H2A.X Phosphorylation Assay Kit (Flow Cytometry; Millipore, Temecula, Calif.) by the manufacturer's instructions. g-H2AX-positive tHDF cells were then quantified using a CyAn ADP Analyzer (Beckman Coulter, Indianapolis, Ind.) and FlowJo analysis software (Version 7.2.2; Tree Star, Ashland, Oreg.). For the in vitro caspase 3/7 assay, tHDF cells were analyzed directly in the 96-well plates 24 hours after radiation or staurosporine treatment. Caspase 3/7 activation was measured using the Caspase-Glo 3/7 Assay System (Promega, Madison, Wis.) by following the manufacturer's instructions.
(§4) For the g-H2AX assay, 30,000 cells were plated per well in 12-well plates. For the caspase 3/7 assay, 1,000 cells were plated per well in 96-well white wall clear bottom plates. Cells were incubated at 37° C. in a humidified atmosphere of 5% CO2 for 24 hours and then irradiated at 6 Gy, 8 Gy, or 10 Gy.

tHS68 cells [11] = assay: g-H2A.X assay after irradiation; assay type: cell-based; settings: 100, 300 or 1,000 nM after 6, 8 or 10 Gy
Description: as §3, §4

[12] = test system: mice after total body irradiation; assay: Radiomitigation, survival after total body irradiation; assay type: in vivo
Description: Wild-type mice, young adult (8-12 weeks of age) C57BL/6 (The Jackson Laboratory) or C3H (Harlan Sprague-Dawley) animals were used. Animals were irradiated using a 137Cs AECL GammaCell 40 Irradiator (Atomic Energy of Canada) or a XRAD320 (Precision XRay Inc.) biological irradiator. Experiments were carried out using the 137Cs source, unless otherwise noted.

[13] = single oral dose 150 mg/kg 12 hours after exposure

O=C1NC(=O)c2c1c1c3ccccc3[nH]c1c1[nH]c3cc(Br)ccc3c21 [Formula 2BrIC, 2-bromo-12,13-dihydro-5H-indolo[2,3-a]pyrrolo[3,4]carbazole-5,6-dione]
IR protection [1]: exhibited IR protective characteristics
G1 arrest [2]: did not G1 arrest
protection from IR exposure [2]: failed to protect
HSPC protection and survival after TBI [3]: protect HSPCs and improve survival of mice
bioavailability [4]: restricted bioavailability

CN1CCN(c2ccc(Nc3ncc4cc5n(c4n3)C3(CCCCC3)CNC5=O)nc2)CC1 [Formula I, 2′-((5-(4-methylpiperazin-1-yl)pyridin-2-yl)amino)-7′,8′-dihydro-6′H-spiro[cyclohexane-1,9′-pyrazino[1′,2′:1,5]pyrrolo[2,3-d]pyrimidin]-6′-one]
number of 395 non-mutant kinases inhibited, threshold 65% ([5]; inhibitory threshold 65%): 92
number of 395 non-mutant kinases inhibited, threshold 90% ([5]; inhibitory threshold 90%): 31
number of 395 non-mutant kinases inhibited, threshold 99% ([5]; inhibitory threshold 99%): 6
pEC50 (HS68 cells): 7.00
cells in S-phase at the highest concentration shown (tHS68 cells [6]; tHS68, 24 hours, 28% at baseline): 6%
pEC50 (tHS68 cells [6]; tHS68 cells, 24 hours, read-out: G1 cell cycle arrest EC50): 7.10
effect on proliferation (cells in S phase, EdU) of Rb-positive cell line (WM2664 or tHS68): inhibits
effect on growth (cells in S phase, EdU) of Rb-negative SCLC cell lines [7]: does not affect the growth
pEC50 [8]: < 5.52
pEC50 [9]: < 5.52
half-life in liver microsomes [10]: shorter half-life than PD0332991
radiation induced apoptosis (caspase 3/7 activity) (tHDF cells): dose dependent decrease in radiation induced apoptosis
radiation induced DNA damage (H2AX foci) (tHS68 cells [11]): dose dependent decrease in radiation induced DNA damage
survival after 7.5 Gy TBI, two doses ([12]; 150 mg/kg oral at 12 hours and 24 hours post TBI): Survival was also enhanced
survival after 7.2 Gy TBI [12, 13]: provided radiomitigation
survival after 7.5 Gy TBI [12, 13]: significant survival effect
